Our source for the EC50 values is ChEMBL document CHEMBL1148208, “Aureoverticillactam, a novel 22-atom macrocyclic lactam from the marine actinomycete Streptomyces aureoverticillatus” (J Nat Prod, 2004).

Type in all cases: functional, cell-based
One assay deals with HT-29. Description: Cytotoxicity against human HT29 cells after 48 hrs. The settings on record: HT-29, 48 h.
The next assay has as its system B16-F10. Description: Cytotoxicity against mouse B16F10 cells after 48 hrs. As to conditions: B16-F10, 48 h.
In another assay the test system is Jurkat. Briefly: Cytotoxicity against human Jurkat cells after 48 hrs.

In the case of `CCC/C=C/CC1C/C=C/C=C(C)/C=C/C=C\C(O)CC(O)C(O)/C=C/C=C/C=C/C(=O)N1` (stereo not drawn) [AUREOVERTICILLACTAM], the half-maximal effective concentration (EC50) with HT-29 was 3600 nM; in the assay with B16-F10 it was 2200 nM; in the assay with Jurkat it was 2300 nM.

A word on the EC50: it is the concentration that produces a half-maximal response.
